From patent US8426408B2, “Pyrimidine inhibitors of kinases” (AbbVie Inc., priority 2009, dated 2013)

Legend:
[1] = target: T1, Aurora A (Homo sapiens, UniProt O14965); assay: Aurora A enzyme inhibition (time-resolved fluorescence, STK substrate-2); assay type: biochemical; conditions: 1 mM ATP
T1 sequence (O14965 1-403): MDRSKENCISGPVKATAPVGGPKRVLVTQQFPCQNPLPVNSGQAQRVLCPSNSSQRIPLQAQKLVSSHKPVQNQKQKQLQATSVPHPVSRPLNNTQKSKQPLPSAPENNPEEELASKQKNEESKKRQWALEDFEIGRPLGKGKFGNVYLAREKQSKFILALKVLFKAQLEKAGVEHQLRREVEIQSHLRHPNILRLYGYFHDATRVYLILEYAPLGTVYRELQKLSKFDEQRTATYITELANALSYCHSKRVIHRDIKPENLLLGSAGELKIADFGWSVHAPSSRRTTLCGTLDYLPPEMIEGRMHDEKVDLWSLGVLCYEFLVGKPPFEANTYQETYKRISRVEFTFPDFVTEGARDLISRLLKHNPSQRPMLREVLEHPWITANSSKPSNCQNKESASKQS
Procedure, shortened: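 Active enzyme incubated 1 h with biotinylated STK substrate-2, 1 mM ATP and inhibitor in Hepes pH 7.4 with MgCl2, orthovanadate and Triton X-100. EDTA stop; phosphopeptide detected by Eu-cryptate anti-phospho-STK/SA-XL665 TR-FRET (665/615 nm ratio); IC50 by exponential fit.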

[2] = target: KDR (Homo sapiens, UniProt P35968); assay: KDR cellular assay (KDR receptor phosphorylation ELISA); assay type: cell-based; design: expressed in transfected cells; host or cells: 3T3 (embryonic mouse) cells; conditions: KDR transfected 3T3 (embryonic mouse) cells, VEGF stimulated; read-out: IC50 inhibition of KDR phosphorylation
KDR, sequence (P35968 20-1356): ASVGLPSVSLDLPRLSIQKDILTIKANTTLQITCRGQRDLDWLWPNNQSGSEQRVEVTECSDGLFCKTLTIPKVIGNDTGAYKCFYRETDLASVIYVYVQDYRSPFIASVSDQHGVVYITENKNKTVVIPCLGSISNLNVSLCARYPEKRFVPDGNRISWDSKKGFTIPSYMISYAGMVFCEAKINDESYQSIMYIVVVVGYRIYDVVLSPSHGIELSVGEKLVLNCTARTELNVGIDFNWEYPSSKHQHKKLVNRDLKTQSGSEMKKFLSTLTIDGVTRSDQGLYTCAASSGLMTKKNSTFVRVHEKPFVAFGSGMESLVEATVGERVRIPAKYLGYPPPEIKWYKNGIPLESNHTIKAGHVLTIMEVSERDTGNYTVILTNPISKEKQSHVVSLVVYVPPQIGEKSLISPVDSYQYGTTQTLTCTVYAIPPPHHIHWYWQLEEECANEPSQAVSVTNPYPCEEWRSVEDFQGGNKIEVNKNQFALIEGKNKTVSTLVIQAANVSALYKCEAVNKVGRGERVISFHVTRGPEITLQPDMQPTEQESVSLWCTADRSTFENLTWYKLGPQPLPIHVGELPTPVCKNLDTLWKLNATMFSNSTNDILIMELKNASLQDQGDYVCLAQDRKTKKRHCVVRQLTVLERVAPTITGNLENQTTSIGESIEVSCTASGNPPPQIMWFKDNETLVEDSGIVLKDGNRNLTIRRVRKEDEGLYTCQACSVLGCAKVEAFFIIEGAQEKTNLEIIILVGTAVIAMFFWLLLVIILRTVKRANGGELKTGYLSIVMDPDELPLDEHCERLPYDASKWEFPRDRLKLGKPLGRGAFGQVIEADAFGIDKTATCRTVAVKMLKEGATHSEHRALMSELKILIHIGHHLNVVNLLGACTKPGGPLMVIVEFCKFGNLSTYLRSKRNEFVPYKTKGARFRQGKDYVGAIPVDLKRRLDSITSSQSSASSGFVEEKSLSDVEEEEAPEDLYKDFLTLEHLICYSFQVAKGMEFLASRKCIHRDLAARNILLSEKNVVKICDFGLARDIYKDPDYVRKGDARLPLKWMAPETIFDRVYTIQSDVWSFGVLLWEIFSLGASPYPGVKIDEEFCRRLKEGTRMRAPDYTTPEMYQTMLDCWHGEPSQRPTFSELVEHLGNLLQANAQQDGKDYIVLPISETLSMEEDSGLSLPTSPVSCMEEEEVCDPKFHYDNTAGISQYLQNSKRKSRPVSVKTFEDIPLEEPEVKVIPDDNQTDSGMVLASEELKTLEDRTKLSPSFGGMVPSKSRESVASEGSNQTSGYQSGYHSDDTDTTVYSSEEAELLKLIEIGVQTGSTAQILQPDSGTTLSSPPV
Procedure, shortened: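 KDR-transfected mouse 3T3 cells treated 20 min at 37° C with half-log compound dilutions, then stimulated 10 min with VEGF (100 ng/ml solution). Lysates captured on anti-KDR plates; phosphorylation by biotin antibody/streptavidin-HRP ELISA at 450 nm. IC50 by non-linear regression.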

[3] = system: NCI-H1299 cells; assay: Induction of polyploidy in H1299; assay type: cell-based, Human; conditions: NCI-H1299, 48 hours; for EC15: Homo sapiens, read-out: EC15 (concentration of inhibitor necessary to induce polyploidy in 15% of cells)
Procedure, shortened: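 NCI-H1299 cells in RPMI 1640/10% FCS were treated with inhibitor concentrations in duplicate for 48 h at 37 C, then formalin-fixed and Hoechst-stained. Nuclear area was measured by high-content imaging, with polyploid (≥4N) defined as >750 μ^2. EC15 was derived by least-squares fit of log dose-response.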

| Ki [1] [nM] | IC50 [2] [nM] | SMILES | EC15 (concentration of inhibitor necessary to induce polyploidy in 15% of cells) [3] | EC15 [3] [nM] |
| --- | --- | --- | --- | --- |
| < 100 | 100 to 1000 | NC(=O)[C@@H]1CCC[C@@H]1Nc1nc(Nc2cnn(C3CCNCC3)c2)ncc1Cl.NC(=O)[C@H]1CCC[C@H]1Nc1nc(Nc2cnn(C3CCNCC3)c2)ncc1Cl (mixture of isomers) [Example 136, (1S,2R)-2-[(5-chloro-2-{[1-(piperidin-4-yl)-1H-pyrazol-4-yl]amino}pyrimidin-4-yl)amino]cyclopentanecarboxamide and (1R,2S)-2-[(5-chloro-2-{[1-(piperidin-4-yl)-1H-pyrazol-4-yl]amino}pyrimidin-4-yl)amino]cyclopentanecarboxamide] | A (“A” represents an EC15 of less than 0.1 μM) | – |
| < 100 | 100 to 1000 | Cn1cc(Nc2ncc(Cl)c(N[C@@H]3[C@H](C(N)=O)[C@H]4CC[C@@H]3O4)n2)cn1.Cn1cc(Nc2ncc(Cl)c(N[C@H]3[C@@H](C(N)=O)[C@@H]4CC[C@H]3O4)n2)cn1 (mixture of isomers) [Example 141, (1S,2R,3S,4R)-3-({5-chloro-2-[(1-methyl-1H-pyrazol-4-yl)amino]pyrimidin-4-yl}amino)-7-oxabicyclo[2.2.1]heptane-2-carboxamide and (1R,2S,3R,4S)-3-({5-chloro-2-[(1-methyl-1H-pyrazol-4-yl)amino]pyrimidin-4-yl}amino)-7-oxabicyclo[2.2.1]heptane-2-carboxamide] | B (“B” represents an EC15 of between 0.1 μM and 1 μM) | – |
| < 100 | 100 to 1000 | Cn1cc(Nc2ncc(Cl)c(N[C@@H]3CC[C@@H]3C(N)=O)n2)cn1.Cn1cc(Nc2ncc(Cl)c(N[C@H]3CC[C@H]3C(N)=O)n2)cn1 (mixture of isomers) [Example 151, (1S,2R)-2-({5-chloro-2-[(1-methyl-1H-pyrazol-4-yl)amino]pyrimidin-4-yl}amino)cyclobutanecarboxamide and (1R,2S)-2-({5-chloro-2-[(1-methyl-1H-pyrazol-4-yl)amino]pyrimidin-4-yl}amino)cyclobutanecarboxamide] | A (“A” represents an EC15 of less than 0.1 μM) | – |
| < 100 | < 100 | CCn1cc(Nc2ncc(Cl)c(N[C@H]3[C@@H](C(N)=O)[C@@H]4C=C[C@H]3C4)n2)cn1 (racemic) [Example 30, (1S,2S,3R,4R)-3-({5-chloro-2-[(1-ethyl-1H-pyrazol-4-yl)amino]pyrimidin-4-yl}amino)bicyclo[2.2.1]hept-5-ene-2-carboxamide and (1R,2R,3S,4S)-3-({5-chloro-2-[(1-ethyl-1H-pyrazol-4-yl)amino]pyrimidin-4-yl}amino)bicyclo[2.2.1]hept-5-ene-2-carboxamide] | A (“A” represents an EC15 of less than 0.1 μM) | – |
| < 100 | 100 to 1000 | CCn1cc(Nc2ncc(Cl)c(NC3C4CCC(O4)C3C(N)=O)n2)cn1 (racemic) [Example 142, (1S,2R,3S,4R)-3-({5-chloro-2-[(1-ethyl-1H-pyrazol-4-yl)amino]pyrimidin-4-yl}amino)-7-oxabicyclo[2.2.1]heptane-2-carboxamide and (1R,2S,3R,4S)-3-({5-chloro-2-[(1-ethyl-1H-pyrazol-4-yl)amino]pyrimidin-4-yl}amino)-7-oxabicyclo[2.2.1]heptane-2-carboxamide] | B (“B” represents an EC15 of between 0.1 μM and 1 μM) | – |
| < 100 | 100 to 1000 | CC(C)NC(=O)C1CCCC1Nc1nc(Nc2cnn(C3CCNCC3)c2)ncc1Cl (racemic) [Example 163, (1S,2R)-2-[(5-chloro-2-{[1-(piperidin-4-yl)-1H-pyrazol-4-yl]amino}pyrimidin-4-yl)amino]-N-isopropylcyclopentanecarboxamide and (1R,2S)-2-[(5-chloro-2-{[1-(piperidin-4-yl)-1H-pyrazol-4-yl]amino}pyrimidin-4-yl)amino]-N-isopropylcyclopentanecarboxamide] | A (“A” represents an EC15 of less than 0.1 μM) | – |
| < 100 | 100 to 1000 | CNC(=O)Cn1cc(Nc2ncc(Cl)c(N[C@@H]3[C@H]4CC[C@H](C4)[C@@H]3C(N)=O)n2)cn1 [Example 88, (1R,2S,3R,4S)-3-{[5-chloro-2-({1-[2-(methylamino)-2-oxoethyl]-1H-pyrazol-4-yl}amino)pyrimidin-4-yl]amino}bicyclo[2.2.1]heptane-2-carboxamide] | – | 100 to 1000 |
| < 100 | < 100 | CN(C)CC(=O)N1CCC(n2cc(Nc3ncc(Cl)c(N[C@H]4[C@@H](C(N)=O)[C@@H]5C=C[C@H]4C5)n3)cn2)CC1 [Example 89, (1S,2S,3R,4R)-3-{[5-chloro-2-({1-[1-(N,N-dimethylglycyl)piperidin-4-yl]-1H-pyrazol-4-yl}amino)pyrimidin-4-yl]amino}bicyclo[2.2.1]hept-5-ene-2-carboxamide] | – | < 100 |
| < 100 | < 100 | CN1CCN(CCn2cc(Nc3ncc(Cl)c(N[C@@H]4[C@H]5CC[C@H](C5)[C@@H]4C(N)=O)n3)cn2)CC1 [Example 90, (1R,2S,3R,4S)-3-{[5-chloro-2-({1-[2-(4-methylpiperazin-1-yl)ethyl]-1H-pyrazol-4-yl}amino)pyrimidin-4-yl]amino}bicyclo[2.2.1]heptane-2-carboxamide] | – | 100 to 1000 |
| < 100 | < 100 | CN1CCN(CCn2cc(Nc3ncc(Cl)c(N[C@H]4[C@@H](C(N)=O)[C@@H]5C=C[C@H]4C5)n3)cn2)CC1 [Example 91, (1S,2S,3R,4R)-3-{[5-chloro-2-({1-[2-(4-methylpiperazin-1-yl)ethyl]-1H-pyrazol-4-yl}amino)pyrimidin-4-yl]amino}bicyclo[2.2.1]hept-5-ene-2-carboxamide] | – | < 100 |
| < 100 | 100 to 1000 | CC(=O)N1CCC(n2cc(Nc3ncc(Cl)c(N[C@H]4[C@@H](C(N)=O)[C@@H]5C=C[C@H]4C5)n3)cn2)CC1 [Example 92, (1S,2S,3R,4R)-3-[(2-{[1-(1-acetylpiperidin-4-yl)-1H-pyrazol-4-yl]amino}-5-chloropyrimidin-4-yl)amino]bicyclo[2.2.1]hept-5-ene-2-carboxamide] | – | < 100 |
| < 100 | 100 to 1000 | NC(=O)[C@H]1[C@@H]2CC[C@@H](C2)[C@H]1Nc1nc(Nc2cnn(CCO)c2)ncc1Cl [Example 93, (1R,2S,3R,4S)-3-[(5-chloro-2-{[1-(2-hydroxyethyl)-1H-pyrazol-4-yl]amino}pyrimidin-4-yl)amino]bicyclo[2.2.1]heptane-2-carboxamide] | – | < 100 |
| < 100 | < 100 | CN1CCC(Cn2cc(Nc3ncc(Cl)c(N[C@H]4[C@@H](C(N)=O)[C@@H]5C=C[C@H]4C5)n3)cn2)CC1 [Example 97, (1S,2S,3R,4R)-3-{[5-chloro-2-({1-[(1-methylpiperidin-4-yl)methyl]-1H-pyrazol-4-yl}amino)pyrimidin-4-yl]amino}bicyclo[2.2.1]hept-5-ene-2-carboxamide] | – | 100 to 1000 |
| < 100 | < 100 | CC(C)n1cc(Nc2ncc(Cl)c(N[C@H]3[C@@H](C(N)=O)[C@@H]4C=C[C@H]3C4)n2)cn1 [Example 98, (1S,2S,3R,4R)-3-({5-chloro-2-[(1-isopropyl-1H-pyrazol-4-yl)amino]pyrimidin-4-yl}amino)bicyclo[2.2.1]hept-5-ene-2-carboxamide] | – | < 100 |
